Measurements: ChEMBL document CHEMBL1146765, “Synthesis and biological activity of some structural modifications of pancratistatin” (2004)

What was measured:
KM-20L2 = test: Tested for growth inhibition activity against colon KM20L2 human cancer cell; type: functional
DU-145 = test: Tested for growth inhibition activity against prostate DU-145 human cancer cell; type: functional
P388 = test: Tested for growth inhibition activity against murine P388 lymphocytic leukemia; type: functional, Mus musculus
BXPC-3 = test: Tested for growth inhibition activity against pancreas BXPC-3 human cancer cell; type: functional
NCI-H460 = test: Tested for growth inhibition activity against lung NCI-H460 human cancer cell; type: functional
SF-268 = test: Tested for growth inhibition activity against CNS SF-268 human cancer cell; type: functional
MCF7 = test: Tested for growth inhibition activity against breast MCF-7 human cancer cell; type: functional

| SMILES | Growth inhibitory concentration (KM-20L2) [µg/mL] | Growth-inhibitory concentration (DU-145) [µg/mL] | Growth-inhibitory concentration (P388) [µg/mL] | Growth-inhibitory concentration (BXPC-3) [µg/mL] | Growth-inhibitory concentration (NCI-H460) [µg/mL] | Growth-inhibitory concentration (SF-268) [µg/mL] | Growth-inhibitory concentration (MCF7) [µg/mL] |
| --- | --- | --- | --- | --- | --- | --- | --- |
| COc1ccc2c(c1)[C@H]1[C@@H](O)[C@H](O)[C@@H](O)[C@@H](O)[C@@H]1NC2=O | 3.6 | 2.6 | 4.3 | 4.9 | 2.8 | 3.3 | 4.4 |
| COC(=O)N[C@H]1[C@H](OC(C)=O)[C@H](OC(C)=O)[C@@H](OC(C)=O)[C@H](OC(C)=O)[C@@H]1c1cccc(OC)c1 | >10 | >10 | 19.3 | >10 | >10 | >10 | >10 |
| O=C1N[C@H]2[C@H](O)[C@H](O)[C@@H](O)[C@H](O)[C@@H]2c2cc3c(cc21)OCO3 | 0.22 | – | 0.44 | – | 0.29 | – | – |
| O=C1N[C@H]2[C@H](O)[C@H](O)[C@@H](O)[C@H](O)[C@@H]2c2cc3c(c(O)c21)OCO3 [PANCRATISTATIN] | 0.062 | 0.016 | 0.039 | 0.028 | 0.048 | 0.017 | 0.032 |
| COc1ccc2c(c1)[C@@H]1[C@@H](NC2=O)[C@H](OC(C)=O)[C@H](OC(C)=O)[C@@H](OC(C)=O)[C@@H]1OC(C)=O | >10 | 6.7 | 2.1 | >10 | >10 | >10 | 4.6 |
| O=C1N[C@H]2[C@H](O)[C@H](O)CC[C@@H]2c2cc3c(cc21)OCO3 | >10 | >10 | 1.39 | >10 | >10 | >10 | >10 |
| CC(=O)O[C@H]1[C@@H]2NC(=O)c3cc4c(cc3[C@H]2CC[C@H]1OC(C)=O)OCO4 | >10 | >10 | 1.1 | >10 | >10 | >10 | >10 |
| O=C1N[C@@H]2C(=C[C@H](O)[C@@H](O)[C@H]2O)c2cc3c(c(O)c21)OCO3 [NARCICLASINE] | 0.021 | 0.011 | 0.0012 | 0.026 | 0.032 | 0.021 | 0.019 |
